Among the test systems are SR leukemia; SF-295 CNS; UACC-62 melanoma; MALME-3M melanoma; DMS 273 small cell lung; 786-0 renal; COLO 205 colon; SNB-78 CNS; T-47D breast; PC-3 prostate.
Assay in all cases: inhibition of tumour cell growth, NCI panel, 48 h

SMILES strings stand for the structures.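 Protocol summary: plate cells (96-well), add compound at 5 concentrations, incubate 48 h, interpolate endpoints linearly. GI50: concentration for 50% inhibition of growth. TGI: total growth inhibition.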

Turning to `CCC[CH2][Sn]1([CH2]CCC)[O]CC(Cc2ccccc2)[O]1` (stereo unspecified), the GI50 was 1.35 µM in the assay with SR leukemia; 2.1 µM in the assay on SF-295 CNS; 1.7 µM in the assay with UACC-62 melanoma; 0.941 µM in the assay with MALME-3M melanoma; 2.81 µM with DMS 273 small cell lung; 1.86 µM in the assay on 786-0 renal. Besides, the GI50 was 2.55 µM in the assay on COLO 205 colon and 2.61 µM with SNB-78 CNS. The TGI with SR leukemia was 4.84 µM; in the assay on SF-295 CNS, 6.3 µM; in the assay with UACC-62 melanoma it was 3.69 µM; in the assay with MALME-3M melanoma it was 3.51 µM; in the assay with DMS 273 small cell lung it was 11 µM; in the assay on 786-0 renal it was 3.73 µM. In addition, the TGI in the assay on COLO 205 colon turned out to be 5.7 µM; with SNB-78 CNS, 7.46 µM.
Consider `COC(=O)/C=C1/CCC(C(=O)OC)N1` (stereo unspecified), for which the TGI in the assay with SR leukemia, in the assay with SF-295 CNS, in the assay with UACC-62 melanoma, with DMS 273 small cell lung, in the assay with 786-0 renal and in the assay on COLO 205 colon was over 100 µM throughout. In the assay on SNB-78 CNS, this compound yielded a TGI of over 100 µM.
For the compound `CCCCCC[N+](C)(C)Cc1ccc(C[N+](C)(C)CCCCCC)cc1`, the TGI in the assay with SR leukemia was found to be 5.08 µM; in the assay with SF-295 CNS it was 10.5 µM; with UACC-62 melanoma, 29.7 µM; in the assay with MALME-3M melanoma it was 97.8 µM; in the assay with DMS 273 small cell lung it was 3.73 µM; in the assay on 786-0 renal it was 18.1 µM. In addition, the TGI in the assay with SNB-78 CNS was found to be 5.15 µM.
As to `Cc1ccc(SC(CCC(Sc2ccc(C)cc2)Sc2ccc(C)cc2)Sc2ccc(C)cc2)cc1`, the TGI in the assay with SR leukemia, in the assay on SF-295 CNS, in the assay with UACC-62 melanoma, in the assay on DMS 273 small cell lung, in the assay on 786-0 renal and in the assay with COLO 205 colon was over 100 µM throughout. Further, in the assay with SNB-78 CNS, the TGI was over 100 µM.
`c1cc(N(CCn2cccn2)CCn2cccn2)cc(N(CCn2cccn2)CCn2cccn2)c1`: the TGI in the assay on SR leukemia, in the assay on SF-295 CNS, in the assay on UACC-62 melanoma, in the assay on DMS 273 small cell lung, with 786-0 renal and in the assay with COLO 205 colon was over 100 µM throughout. The compound also showed a TGI in the assay with SNB-78 CNS of over 100 µM.
As for `CCOC(=O)C1N(S(=O)(=O)c2ccc(C)cc2)CCC12c1ccccc1N(C(C)=O)C2c1ccc(OC)c(OC)c1` (stereo unspecified), the TGI in the assay with SF-295 CNS, with UACC-62 melanoma, with MALME-3M melanoma, in the assay with DMS 273 small cell lung, in the assay on 786-0 renal and in the assay on COLO 205 colon was over 100 µM throughout. Further, the TGI in the assay with SNB-78 CNS was over 100 µM.
On to `O=C1c2ccccc2C(Br)(Br)c2ccccc21`, for which the TGI was over 31.6 µM with SR leukemia; over 31.6 µM with SF-295 CNS; over 100 µM in the assay on UACC-62 melanoma; over 31.6 µM with MALME-3M melanoma; over 31.6 µM in the assay with DMS 273 small cell lung; over 31.6 µM with 786-0 renal. Further, the figures for the TGI in the assay with COLO 205 colon and with SNB-78 CNS were over 31.6 µM and over 100 µM, respectively.
In the case of `CC(=O)[O][Ga]([Cl])[O]C(C)=O`, the GI50 with SR leukemia, with SF-295 CNS, in the assay on UACC-62 melanoma, with MALME-3M melanoma, in the assay with DMS 273 small cell lung and in the assay on 786-0 renal was over 100 µM each time. Further, the GI50 in the assay with COLO 205 colon and in the assay on SNB-78 CNS was over 100 µM throughout. The TGI in the assay on SR leukemia, in the assay with SF-295 CNS, in the assay with UACC-62 melanoma, in the assay on MALME-3M melanoma, in the assay with DMS 273 small cell lung and with 786-0 renal was over 100 µM in each case. In addition, the TGI with COLO 205 colon and with SNB-78 CNS was over 100 µM each time.
Consider `CC(C)=CC(=O)C/C(=N\NC(N)=S)C(=O)Nc1ccc(Cl)cc1`, for which the TGI in the assay with SF-295 CNS, with UACC-62 melanoma, in the assay on MALME-3M melanoma, with DMS 273 small cell lung, in the assay with 786-0 renal and in the assay with COLO 205 colon was over 100 µM throughout. In the assay on SNB-78 CNS, the TGI is over 100 µM.
Regarding `C=C1C(=O)O[C@@H]2C[C@@H](C)[C@@H]3C=CC(=O)[C@@]3(C)[C@@H](OC(=O)CC(=O)O[C@H]3[C@@H]4C(=C)C(=O)O[C@@H]4C[C@@H](C)[C@@H]4C=CC(=O)[C@]43C)[C@H]12`, the TGI in the assay on SR leukemia came to 0.0548 µM; in the assay on SF-295 CNS, 0.302 µM; with T-47D breast, 2.73 µM; with UACC-62 melanoma, 0.0716 µM; in the assay on MALME-3M melanoma, 0.0368 µM; in the assay on DMS 273 small cell lung, 0.122 µM. Further, the TGI turned out to be 0.0355 µM with 786-0 renal, 0.0403 µM in the assay with COLO 205 colon, 0.101 µM in the assay with SNB-78 CNS and 0.436 µM with PC-3 prostate.
With `COc1ccc(OC)c(/C(C)=N/NC(N)=S)c1`, the TGI with SR leukemia, in the assay with SF-295 CNS, in the assay with UACC-62 melanoma, in the assay with MALME-3M melanoma, in the assay on DMS 273 small cell lung and in the assay on 786-0 renal was over 100 µM each time. For the same compound, the TGI in the assay on COLO 205 colon and in the assay on SNB-78 CNS was over 100 µM each time.
For `CN(C)CC(C)(C)/C(=N\Nc1ccccc1)c1ccccc1`, the TGI is 46.4 µM with SF-295 CNS; 40.8 µM with UACC-62 melanoma; over 100 µM with MALME-3M melanoma; over 100 µM in the assay with DMS 273 small cell lung; over 100 µM in the assay on 786-0 renal; over 100 µM in the assay with COLO 205 colon. The TGI in the assay with SNB-78 CNS was over 100 µM.
For the compound `C#Cc1cccc(N2C(=O)CCC2=O)c1`, the TGI in the assay on SR leukemia was 4.74 µM; with SF-295 CNS it was 30.1 µM; with T-47D breast it was 56.8 µM; with UACC-62 melanoma it was 33.8 µM; in the assay with MALME-3M melanoma it was 28.2 µM; with DMS 273 small cell lung, 47.4 µM. Moreover, the TGI with 786-0 renal was found to be 40.5 µM; with COLO 205 colon, 24.8 µM; in the assay with SNB-78 CNS, 54.6 µM; in the assay on PC-3 prostate, 28.6 µM.
Regarding `Cc1cc2c(ccc3c(C)cc(=O)oc32)o1`, the TGI with SR leukemia, in the assay with SF-295 CNS, with UACC-62 melanoma, in the assay on MALME-3M melanoma, in the assay on DMS 273 small cell lung and in the assay with 786-0 renal was over 100 µM throughout. In addition, the TGI with COLO 205 colon and in the assay with SNB-78 CNS was over 100 µM throughout.
For `COc1ccc2c(CN3CCCCC3CO)cc3cc(OC)c(OC)cc3c2c1` (stereo unspecified), the TGI was 22.2 µM in the assay on SR leukemia; 13.6 µM with SF-295 CNS; 25.7 µM with UACC-62 melanoma; 16.9 µM in the assay on MALME-3M melanoma; 11.7 µM in the assay with DMS 273 small cell lung; 17.3 µM with 786-0 renal. Besides, the TGI in the assay on COLO 205 colon worked out at 10.3 µM; in the assay with SNB-78 CNS, 23.1 µM.
In the case of `CC(C)CC(NC(=O)c1cccc(O)c1O)C(=O)NCc1cc(CNC(=O)C(CC(C)C)NC(=O)c2cccc(O)c2O)cc(CNC(=O)C(CC(C)C)NC(=O)c2cccc(O)c2O)c1` (stereo unspecified), the TGI in the assay with SR leukemia is 32.2 µM; in the assay with SF-295 CNS it was 38.6 µM; in the assay with UACC-62 melanoma, 17.8 µM; in the assay with MALME-3M melanoma it was 39.5 µM; in the assay with DMS 273 small cell lung, 41.9 µM; in the assay with 786-0 renal, over 100 µM. Besides, the TGI with COLO 205 colon was 34.3 µM; in the assay on SNB-78 CNS it was over 100 µM.
Regarding `Cc1ccc(NC(=O)C2C(=O)N(c3ccc(C)cc3)C(=O)/C2=N\NC(N)=S)cc1` (stereo unspecified), the TGI with SF-295 CNS, in the assay on UACC-62 melanoma, in the assay with MALME-3M melanoma, in the assay with DMS 273 small cell lung, in the assay with 786-0 renal and in the assay on COLO 205 colon was over 100 µM each time. In addition, the TGI in the assay on SNB-78 CNS was over 100 µM.
Take `COc1ccc2c(c1)N1CCc3cc(OC)c(OC)cc3C1C2` (stereo unspecified): the TGI with SR leukemia, with SF-295 CNS, in the assay on UACC-62 melanoma, in the assay on MALME-3M melanoma, in the assay with DMS 273 small cell lung and in the assay on 786-0 renal was over 100 µM in each case. Moreover, the TGI in the assay on COLO 205 colon and in the assay with SNB-78 CNS was over 100 µM in each case.

(Values after PubChem BioAssay (NCI).)
